Reference: PubChem BioAssay (NCI)
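Tested at 5 concentrations; 48 h exposure; 96-well plates; endpoints linearly interpolated, else capped at highest concentration. Here, GI50 denotes the concentration required for 50% inhibition of growth. TGI marks complete inhibition of growth.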

Tests used:
Experiment in all cases: NCI anticancer screen, dose series, 48 h
786-0 renal = tested on: 786-0 renal
UACC-62 melanoma = tested on: UACC-62 melanoma
HCT-15 colon = tested on: HCT-15 colon
COLO 205 colon = tested on: COLO 205 colon
EKVX NSCLC = tested on: EKVX NSCLC
SK-MEL-2 melanoma = tested on: SK-MEL-2 melanoma
U251 CNS = tested on: U251 CNS
HCT-116 colon = tested on: HCT-116 colon
SK-OV-3 ovarian = tested on: SK-OV-3 ovarian
ACHN renal = tested on: ACHN renal
K-562 leukemia = tested on: K-562 leukemia
IGROV1 ovarian = tested on: IGROV1 ovarian
OVCAR-5 ovarian = tested on: OVCAR-5 ovarian
OVCAR-3 ovarian = tested on: OVCAR-3 ovarian
HCC-2998 colon = tested on: HCC-2998 colon
OVCAR-4 ovarian = tested on: OVCAR-4 ovarian
NCI-H226 lung = tested on: NCI-H226 lung
MDA-MB-231 breast = tested on: MDA-MB-231 breast
NCI-H460 lung = tested on: NCI-H460 lung
RXF 393 renal = tested on: RXF 393 renal
KM12 colon = tested on: KM12 colon
UACC-257 melanoma = tested on: UACC-257 melanoma
BT-549 breast = tested on: BT-549 breast
SF-268 CNS = tested on: SF-268 CNS
T-47D breast = tested on: T-47D breast
NCI-H23 lung = tested on: NCI-H23 lung
LOX IMVI melanoma = tested on: LOX IMVI melanoma
RPMI-8226 leukemia = tested on: RPMI-8226 leukemia
A549 NSCLC = tested on: A549 NSCLC
OVCAR-8 ovarian = tested on: OVCAR-8 ovarian
HOP-92 NSCLC = tested on: HOP-92 NSCLC
CAKI-1 renal = tested on: CAKI-1 renal
UO-31 renal = tested on: UO-31 renal
SF-295 CNS = tested on: SF-295 CNS
HL-60(TB) leukemia = tested on: HL-60(TB) leukemia
SNB-75 CNS = tested on: SNB-75 CNS
DU-145 prostate = tested on: DU-145 prostate
HS 578T breast = tested on: HS 578T breast
TK-10 renal = tested on: TK-10 renal
MALME-3M melanoma = tested on: MALME-3M melanoma
SNB-19 CNS = tested on: SNB-19 CNS
SK-MEL-28 melanoma = tested on: SK-MEL-28 melanoma
M14 melanoma = tested on: M14 melanoma
HT29 colon = tested on: HT29 colon
PC-3 prostate = tested on: PC-3 prostate
MCF7 breast = tested on: MCF7 breast
SR leukemia = tested on: SR leukemia
MOLT-4 leukemia = tested on: MOLT-4 leukemia
SK-MEL-5 melanoma = tested on: SK-MEL-5 melanoma
SW-620 colon = tested on: SW-620 colon
HOP-62 NSCLC = tested on: HOP-62 NSCLC
SN12C renal = tested on: SN12C renal
NCI/ADR-RES ovarian = tested on: NCI/ADR-RES ovarian
MDA-MB-435 = tested on: MDA-MB-435
NCI-H522 lung = tested on: NCI-H522 lung
SF-539 CNS = tested on: SF-539 CNS

Structure (SMILES): Oc1c(CCl)cc(Cl)cc1Cc1cc(Cl)cc(Cc2cc(Cl)cc(CCl)c2O)c1O
- GI50 (786-0 renal): 4.61 µM
- TGI (786-0 renal): 25.3 µM
- GI50 (UACC-62 melanoma): 2.9 µM
- TGI (UACC-62 melanoma): 11.1 µM
- GI50 (HCT-15 colon): 2.88 µM
- TGI (HCT-15 colon): 12 µM
- GI50 (COLO 205 colon): 7.14 µM
- TGI (COLO 205 colon): 26.7 µM
- GI50 (EKVX NSCLC): 2.89 µM
- TGI (EKVX NSCLC): 15.8 µM
- GI50 (SK-MEL-2 melanoma): 2.16 µM
- TGI (SK-MEL-2 melanoma): 6.82 µM
- GI50 (U251 CNS): 2.83 µM
- TGI (U251 CNS): 21.1 µM
- GI50 (HCT-116 colon): 2.92 µM
- TGI (HCT-116 colon): 10.4 µM
- GI50 (SK-OV-3 ovarian): 3.25 µM
- TGI (SK-OV-3 ovarian): 11.4 µM
- GI50 (ACHN renal): 3.09 µM
- TGI (ACHN renal): 12.8 µM
- GI50 (K-562 leukemia): 1.99 µM
- TGI (K-562 leukemia): 13.4 µM
- GI50 (IGROV1 ovarian): 3.79 µM
- TGI (IGROV1 ovarian): 16.7 µM
- GI50 (OVCAR-5 ovarian): 12.2 µM
- TGI (OVCAR-5 ovarian): 38.7 µM
- GI50 (OVCAR-3 ovarian): 3.59 µM
- TGI (OVCAR-3 ovarian): 15 µM
- GI50 (HCC-2998 colon): 2.8 µM
- TGI (HCC-2998 colon): 12.2 µM
- GI50 (OVCAR-4 ovarian): 3.1 µM
- TGI (OVCAR-4 ovarian): 64.7 µM
- GI50 (NCI-H226 lung): 4.11 µM
- TGI (NCI-H226 lung): 21.1 µM
- GI50 (MDA-MB-231 breast): 2.64 µM
- TGI (MDA-MB-231 breast): 7.63 µM
- GI50 (NCI-H460 lung): 3.26 µM
- TGI (NCI-H460 lung): 11 µM
- GI50 (RXF 393 renal): 2.59 µM
- TGI (RXF 393 renal): 9.43 µM
- GI50 (KM12 colon): 3.43 µM
- TGI (KM12 colon): 13.5 µM
- GI50 (UACC-257 melanoma): 4.66 µM
- TGI (UACC-257 melanoma): 29.9 µM
- GI50 (BT-549 breast): 2.71 µM
- TGI (BT-549 breast): 11.5 µM
- GI50 (SF-268 CNS): 3.18 µM
- TGI (SF-268 CNS): 62.1 µM
- GI50 (T-47D breast): 2.21 µM
- TGI (T-47D breast): 9.39 µM
- GI50 (NCI-H23 lung): 2.18 µM
- TGI (NCI-H23 lung): 7.31 µM
- GI50 (LOX IMVI melanoma): 3.27 µM
- TGI (LOX IMVI melanoma): 12.2 µM
- GI50 (RPMI-8226 leukemia): 3.08 µM
- TGI (RPMI-8226 leukemia): 91.7 µM
- GI50 (A549 NSCLC): 4.67 µM
- TGI (A549 NSCLC): 29.3 µM
- GI50 (OVCAR-8 ovarian): 3.62 µM
- TGI (OVCAR-8 ovarian): 30.7 µM
- GI50 (HOP-92 NSCLC): 1.91 µM
- TGI (HOP-92 NSCLC): 5.81 µM
- GI50 (CAKI-1 renal): 3.37 µM
- TGI (CAKI-1 renal): 17.7 µM
- GI50 (UO-31 renal): 2.92 µM
- TGI (UO-31 renal): 11.8 µM
- GI50 (SF-295 CNS): 3.66 µM
- TGI (SF-295 CNS): 34.7 µM
- GI50 (HL-60(TB) leukemia): 2.48 µM
- TGI (HL-60(TB) leukemia): 8.13 µM
- GI50 (SNB-75 CNS): 3.95 µM
- TGI (SNB-75 CNS): 80.2 µM
- GI50 (DU-145 prostate): 4.28 µM
- TGI (DU-145 prostate): 37.1 µM
- GI50 (HS 578T breast): 3.02 µM
- TGI (HS 578T breast): 22.6 µM
- GI50 (TK-10 renal): 3.9 µM
- TGI (TK-10 renal): 24.1 µM
- GI50 (MALME-3M melanoma): 3.32 µM
- TGI (MALME-3M melanoma): 14.7 µM
- GI50 (SNB-19 CNS): 3.02 µM
- TGI (SNB-19 CNS): 15.9 µM
- GI50 (SK-MEL-28 melanoma): 3.1 µM
- TGI (SK-MEL-28 melanoma): 16.1 µM
- GI50 (M14 melanoma): 3.54 µM
- TGI (M14 melanoma): 15.7 µM
- GI50 (HT29 colon): 5.37 µM
- TGI (HT29 colon): 17.6 µM
- GI50 (PC-3 prostate): 2.7 µM
- TGI (PC-3 prostate): 10.1 µM
- GI50 (MCF7 breast): 2.73 µM
- TGI (MCF7 breast): 10.9 µM
- GI50 (SR leukemia): 2.85 µM
- TGI (SR leukemia): 41 µM
- GI50 (MOLT-4 leukemia): 2.67 µM
- TGI (MOLT-4 leukemia): 13.4 µM
- GI50 (SK-MEL-5 melanoma): 1.91 µM
- TGI (SK-MEL-5 melanoma): 4.19 µM
- GI50 (SW-620 colon): 3.92 µM
- TGI (SW-620 colon): 14.2 µM
- GI50 (HOP-62 NSCLC): 4.42 µM
- TGI (HOP-62 NSCLC): 26.5 µM
- GI50 (SN12C renal): 2.56 µM
- TGI (SN12C renal): 8.79 µM
- GI50 (NCI/ADR-RES ovarian): 2.2 µM
- TGI (NCI/ADR-RES ovarian): 7.29 µM
- GI50 (MDA-MB-435): 3.89 µM
- TGI (MDA-MB-435): 21.4 µM
- GI50 (NCI-H522 lung): 2.73 µM
- TGI (NCI-H522 lung): 10.2 µM
- GI50 (SF-539 CNS): 4.16 µM
- TGI (SF-539 CNS): 18.2 µM
